The values that follow come from patent publication US10899764B2, “Imidazo isoindole derivative, preparation method therefor and medical use thereof” (Jiangsu Hengrui Medicine Co., Ltd., priority 2015, dated 2021).

The target in one data set is human TDO (Homo sapiens (Human), UniProt P48775). Put plainly: Inhibition activity on human TDO (tryptophan 2,3-dioxygenase) (enzyme assay, absorbance at 480 nm). Format: biochemical. As to conditions: read-out: IC50 for inhibiting the activity of human TDO. As for the experimental part: Assay for Determining the Inhibition activity of the Compounds of the Present Invention on Human TDO (tryptophan 2,3-dioxygenase)
Human TDO activity was tested in vitro by the following method.
This method is used to determine the inhibition effect of the compounds of the present invention on the activity of human TDO.
Plasmids constructed with the human TDO gene were transferred to competent Escherichia coli Rosseta. The TDO gene was scaled-up by culturing in liquid LB (Luria-Bertani) medium [which was prepared per liter according to “Molecular Cloning A Laboratory Manual” (J. Sambrook, D. W. Russell)]). The bacteria were collected and lysed by ultrasonic waves. The purified TDO was obtained by eluting from a column.
For testing, 24 μL of enzyme (TDO) was diluted 100 times with 50 mM KPB to 2400 μL. The concentration of the enzyme solution was 2.6 ng/μL. A 96 well reaction plate (AXYGEN, PCR-96-FLT-C) (hereinafter referred to as the “reaction plate”) was added with the enzyme solution at 24 μL/well. The blank well was added with 24 μL of KPB [Preparation of KPB buffer (50 mM): 6.805 g of KH2PO4 was weighed using an analytical balance, and placed into a 1000 mL beaker, deionized water was added with a measuring cylinder to 900 mL, the pH was adjusted to 6.5 by 1M KOH, then the mixture was introduced into a 1 L measuring cylinder, and water was added to 1 L. It was stored at 4° C.]. Then, 1 μL of a compound or DMSO was added into the corresponding wells in the reaction plate. Preparation of solution A: 200 μL of 500 mM L-sodium ascorbate was added with 1050 μL of KPB, then the mixture was mixed uniformly for 3 seconds at the maximum speed in a turbine mixer. Solution B: 100 μL of 10 mM tryptophan was added with 100 μL of 100,000 unit/ml catalase, 5 μL of 10 mM methylene blue, and 1050 μL of KPB successively, then the mixture was mixed uniformly for 3 seconds at the maximum speed in a turbine mixer. Then, 1200 μL of solution A and 1200 μL of solution B were taken and mixed uniformly for 3 seconds at the maximum speed in a turbine mixer. The mixture was added to the reaction plate at 24 μL/well. The reaction plate was placed in a plate centrifuge and centrifuged for 15 seconds at the maximum speed, so that the reaction liquids converged to the bottom. The reaction mixture was mixed uniformly for 30 seconds on a shaker, and incubated for 1 hour at 37° C. in a constant temperature incubator. In the reaction plate, 30% (W/V) trichloroacetic acid was added at 10 μL/well, then the mixture was incubated for 15 minutes at 65° C. in a incubator. The reaction plate was centrifuged in a centrifuge for 5 minutes at 4700 RPM at room temperature. […] Then, 2% (W/V) 4-(dimethylamino)benzaldehyde/glacial acetic acid solution was added at 40 μL/well, then the mixture was mixed uniformly for 1 minute on a shaker at the maximum speed. After incubation for 2 minutes at room temperature, the absorbance at 480 nm was read on a Synergy HT Reader.
The inhibition activity of the compounds of the present invention on human TDO was tested by the assay described above.

The nature of data set [1]: Pharmacokinetics assay in SD rats after intragastrical administration. The data set is classed as in vivo. The settings on record: both sexes, Sprague-Dawley, rat, plasma, po, intragastric, 10 mg/kg. The protocol: Sprague-Dawley (SD) rats were used as test animals. […] The pharmacokinetic behavior of the compounds of the present invention was studied and evaluated in rats.
Eight (8) healthy adult SD rats, half male and half female, were purchased from SINO-BRITSH SIPPR/BK LAB. […]
The samples were stored in heparinized test tubes, and centrifuged for 10 minutes at 3,500 rpm to separate blood plasma. The plasma samples were stored at −20° C. The rats were fed 2 hours after administration.
(§1) The concentration of the test compounds in rat plasma after intragastric administration was determined by LC/MS/MS.

Data set [2] is described as follows: Pharmacokinetics assay in c57bl/6 mice after intragastric administration. The data set is classed as in vivo. The settings on record: mouse, plasma, po, female c57bl/6 mice, 3 mg/kg. As for the experimental part: c57bl/6 mice were used as test animals. […] The pharmacokinetic behavior of the compounds of the present invention was studied and evaluated in c57bl/6 mice.
Eighteen (18) female c57bl/6 mice, were purchased from SINO-BRITSH SIPPR/BK LAB. ANIMAL LTD., CO.
The appropriate amount of each test compound was weighed, and added with 0.5% CMC-Na to prepare a 1 mg/mL suspension by an ultrasonic method.
After an overnight fast, 18 female c57bl/6 mice were equally divided into 2 groups, 9 mice per group, and administered the test compounds intragastrically at an administration volume of 0.2 mL/kg.
The samples were stored in heparinized test tubes, and centrifuged for 10 minutes at 3,500 rpm to separate blood plasma. The plasma samples were stored at −20° C.
as §1

[3] abbreviates: read-out: Apparent Distribution Volume Vz/F.
Where [4] appears, read: read-out: Mean Residence Time MRT.

Where a name gives a salt, the structure may show the parent alone. Read-outs that look alike come from different tables or passages of the source.

Sequence of human TDO (P48775 whole entry): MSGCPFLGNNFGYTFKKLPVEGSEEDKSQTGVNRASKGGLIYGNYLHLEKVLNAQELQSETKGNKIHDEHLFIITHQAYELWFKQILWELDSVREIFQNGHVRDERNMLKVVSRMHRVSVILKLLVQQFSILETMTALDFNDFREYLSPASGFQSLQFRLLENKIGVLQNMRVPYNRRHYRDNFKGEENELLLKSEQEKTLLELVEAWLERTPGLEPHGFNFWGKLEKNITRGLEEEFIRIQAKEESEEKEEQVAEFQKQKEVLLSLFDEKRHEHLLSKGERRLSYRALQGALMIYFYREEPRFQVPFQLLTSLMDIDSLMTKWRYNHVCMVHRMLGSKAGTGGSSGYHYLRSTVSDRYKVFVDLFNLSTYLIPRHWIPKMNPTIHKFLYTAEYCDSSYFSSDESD

On to `Fc1cccc(N2CCC(C3c4c(F)cccc4-c4cncn43)CC2)c1` (centres unmarked) [Example 3, 6-fluoro-5-(1-(3-fluorophenyl)piperidin-4-yl)-5H-imidazo[5,1-a]isoindole trifluoroacetate], for which the IC50 at human TDO was determined as 0.371 µM. Also, in data set [1] (setting [3]), the Vd/F was found to be 14.1 ± 1.72 L/kg. Besides, in data set [1] (read-out: Area Under Curve AUC), the AUC is 2.62 ± 0.977 µg·h/mL. Also, the CL/F in data set [1] (read-out: Clearance CLz/F) came out at 4.25 ± 1.58 L/h/kg. In addition, the half-life in data set [1] (read-out: Half-Life T½ (converted)) was 2.54 ± 0.91 h. The MRT in data set [1] (setting [4]) stood at 2.72 ± 0.36 h. In addition, the Cmax in data set [1] (read-out: Plasma Conc. Cmax) turned out to be 1.07 ± 0.524 µg/mL.
As to `OCCn1cc(-c2ccc(N3CCC([C@H]4c5c(F)cccc5-c5cncn54)CC3)cc2)cn1` [Example 41, (S)-2-(4-(4-(4-(6-fluoro-5H-imidazo[5,1-a]isoindol-5-yl)piperidin-1-yl)phenyl)-1H-pyrazol-1-yl)ethanol], on human TDO (purified recombinant human TDO, 1 hour at 37° C.), the IC50 worked out at 0.042 µM. In addition, the Vd/F in data set [2] (setting [3]) is 1.28 L/kg. In data set [2] (read-out: Area Under Curve AUC), the AUC turned out to be 4.63 µg·h/mL. Also, the CL/F in data set [2] (read-out: Clearance CLz/F) turned out to be 0.648 L/h/kg. Besides, in data set [2] (read-out: Half-Life t½ (converted)), the half-life was 2.06 h. Further, the MRT in data set [2] (setting [4]) came to 1.36 h. For the same compound, in data set [2] (read-out: Plasma Conc. Cmax), the Cmax was found to be 1.67 µg/mL.
